ChEMBL document CHEMBL1201862, “PubChem BioAssay data set” (2004)
Calls of active or inactive are those of the source.

Columns and labels:
[1] = test system: HEK293; test: NOD1 signaling inhibitors, primary screen, cell-based, luminescence, uHTS (AID 1578); assay type: functional; conditions: Homo sapiens
[2] = test system: HEK293; test: cells; assay type: functional, cell-based; conditions: Homo sapiens
[3] = test system: HEK293; test: cells; assay type: functional, cell-based; conditions: Homo sapiens; remark: listed apart in the source
[4] = target: Nucleotide-binding oligomerization domain-containing protein 2 (Homo sapiens, UniProt Q9HC29); test: NOD2 signaling inhibitors, cell-based, luminescence, uHTS, HEK293 (AID 1566); assay type: functional
[5] = test system: HEK293; test: NOD2 signaling inhibitors in MDP-stimulated cells, cell-based, uHTS, luminescence (AID 2001); assay type: functional; conditions: Homo sapiens
[6] = test system: HEK293; test: cells; assay type: functional, cell-based; conditions: Homo sapiens; remark: listed apart in the source
[7] = target: Nonstructural protein 1 (Influenza A virus, UniProt Q194T2); assay type: functional, Influenza A virus (A/California/07/2009(H1N1))
[8] = test system: HEK293; test: cells; conditions: Homo sapiens
[9] = test system: HEK293; test: cells; conditions: Homo sapiens; remark: listed apart in the source
[10] = test system: Streptococcus sp. 'group A'; test: growth inhibition of control SK(-) GAS strain, dose response, counter-screen for streptokinase expression inhibitor project, luminescence, kanamycin, BacTiterGlo, confirmation (AID 1900); assay type: functional, organism-based
[11] = target: T1, Streptokinase A (Streptococcus pyogenes serotype M1, UniProt P10520); test: S. pyogenes streptokinase expression inhibitors, potency, dose response, plasminogen activation absorbance, OD405 (AID 1914); assay type: functional, Streptococcus pyogenes M1 GAS;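 also: secreted streptokinase activity via plasminogen activation per viability signal from cell pellet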
T1 sequence (P10520 whole entry): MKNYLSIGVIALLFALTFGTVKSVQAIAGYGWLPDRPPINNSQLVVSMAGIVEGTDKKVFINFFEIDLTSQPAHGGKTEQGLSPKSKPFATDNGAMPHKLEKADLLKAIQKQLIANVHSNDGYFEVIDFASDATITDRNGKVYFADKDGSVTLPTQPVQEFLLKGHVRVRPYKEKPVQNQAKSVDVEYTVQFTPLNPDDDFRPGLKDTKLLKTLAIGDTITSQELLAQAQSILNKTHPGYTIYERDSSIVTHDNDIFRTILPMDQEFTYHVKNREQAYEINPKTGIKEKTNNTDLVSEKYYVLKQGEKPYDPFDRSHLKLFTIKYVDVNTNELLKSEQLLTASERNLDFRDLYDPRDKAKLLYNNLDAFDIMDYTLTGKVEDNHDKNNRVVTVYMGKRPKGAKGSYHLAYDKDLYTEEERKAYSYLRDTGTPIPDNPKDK

[12] = test system: Streptococcus; test: Group A Streptococcus viability loss, dose response, counter-screen for streptokinase expression inhibitor project, luminescence, BacTiterGlo (AID 1915); assay type: functional, organism-based;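 also: potency for reduction of bacterial viability or growth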
[13] = target: T2, Ubiquitin-conjugating enzyme E2 N (Homo sapiens, UniProt P61088); assay type: functional;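 also: Dose-response confirmation in a TR-FRET assay detecting UBC13-driven polyubiquitin chain formation, inhibition measured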
T2 sequence (P61088 whole entry): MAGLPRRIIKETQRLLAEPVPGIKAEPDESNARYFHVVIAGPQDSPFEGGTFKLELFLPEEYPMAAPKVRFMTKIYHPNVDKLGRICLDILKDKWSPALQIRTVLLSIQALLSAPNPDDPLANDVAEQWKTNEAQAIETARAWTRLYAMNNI

[14] = test system: INS1; test: beta cell apoptosis inhibitors, cytokine rescue, dose response, luminescence, retest (AID 449756); assay type: functional, cell-based; conditions: Rattus norvegicus;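 also: cell death triggered by IL-1 beta plus TNF-alpha plus IFN-gamma mixture; protective hits raise ATP signal compared with cytokine alone wells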
[15] = target: Cytochrome P450 2D6 (Homo sapiens, UniProt P10635);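 also: CYP2D6 member of a cytochrome P450 panel assay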
[16] = target: T3, Mannose-6-phosphate isomerase (Homo sapiens, UniProt P34949); test: inhibitors of human PMI, primary screen, biochemical, fluorescence intensity, coupled assay (AID 1209)
T3 sequence (P34949 whole entry): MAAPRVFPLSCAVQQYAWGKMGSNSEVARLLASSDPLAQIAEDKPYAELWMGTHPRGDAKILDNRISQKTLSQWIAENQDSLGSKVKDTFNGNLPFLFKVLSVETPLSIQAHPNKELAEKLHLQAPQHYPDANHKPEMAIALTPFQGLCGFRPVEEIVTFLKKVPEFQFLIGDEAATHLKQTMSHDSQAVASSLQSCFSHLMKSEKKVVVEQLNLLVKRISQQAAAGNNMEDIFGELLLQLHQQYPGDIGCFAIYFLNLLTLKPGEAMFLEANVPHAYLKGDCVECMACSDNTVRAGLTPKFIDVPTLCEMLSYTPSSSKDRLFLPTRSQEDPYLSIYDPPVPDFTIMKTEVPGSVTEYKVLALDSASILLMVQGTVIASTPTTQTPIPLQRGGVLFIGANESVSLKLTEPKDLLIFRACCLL

[17] = target: T3, Mannose-6-phosphate isomerase; test: PMI enzyme inhibitors, confirmation, biochemical, fluorescence intensity (AID 1535)
[18] = target: Phosphomannomutase 2 (Homo sapiens, UniProt O15305); test: Counter screen SAR assay for PMM2 inhibitors via a fluorescence intensity assay. [Related pubchem assays (depositor defined):AID1545, AID1574]
[19] = target: G-protein coupled receptor 55 (Homo sapiens, UniProt Q9Y2T6); test: GPR55 antagonists, SAR follow-up, counter-screen for GPR35 antagonist project, imaging, image-based (AID 2397); assay type: functional
[20] = NIH-3T3 fibroblast cytotoxicity, dose response, cytotoxicity control, cell-based, fluorescence, Alamar Blue, secondary assay (AID 2327); assay type: functional;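 also: NIH-3T3 mouse fibroblasts cultured with fluconazole at 8 µg/mL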
[21] = target: SUMO-activating enzyme (Homo sapiens, UniProt Q9UBT2); test: SUMOylation inhibitor hit validation, confirmation, SUMOylation inhibitor project, biochemical, AlphaScreen (AID 2018); assay type: functional
[22] = C. albicans growth with fluconazole, confirmation, fluorescence, retest (AID 2467); assay type: functional, cell-based
[23] = target: T4, Replicative DNA helicase DnaB (Mycobacterium tuberculosis, UniProt P9WMR3); test: DnaB intein splicing inhibitors, dose response, biochemical, cell-free fluorescence (AID 449749); assay type: functional
T4 sequence (P9WMR3 whole entry): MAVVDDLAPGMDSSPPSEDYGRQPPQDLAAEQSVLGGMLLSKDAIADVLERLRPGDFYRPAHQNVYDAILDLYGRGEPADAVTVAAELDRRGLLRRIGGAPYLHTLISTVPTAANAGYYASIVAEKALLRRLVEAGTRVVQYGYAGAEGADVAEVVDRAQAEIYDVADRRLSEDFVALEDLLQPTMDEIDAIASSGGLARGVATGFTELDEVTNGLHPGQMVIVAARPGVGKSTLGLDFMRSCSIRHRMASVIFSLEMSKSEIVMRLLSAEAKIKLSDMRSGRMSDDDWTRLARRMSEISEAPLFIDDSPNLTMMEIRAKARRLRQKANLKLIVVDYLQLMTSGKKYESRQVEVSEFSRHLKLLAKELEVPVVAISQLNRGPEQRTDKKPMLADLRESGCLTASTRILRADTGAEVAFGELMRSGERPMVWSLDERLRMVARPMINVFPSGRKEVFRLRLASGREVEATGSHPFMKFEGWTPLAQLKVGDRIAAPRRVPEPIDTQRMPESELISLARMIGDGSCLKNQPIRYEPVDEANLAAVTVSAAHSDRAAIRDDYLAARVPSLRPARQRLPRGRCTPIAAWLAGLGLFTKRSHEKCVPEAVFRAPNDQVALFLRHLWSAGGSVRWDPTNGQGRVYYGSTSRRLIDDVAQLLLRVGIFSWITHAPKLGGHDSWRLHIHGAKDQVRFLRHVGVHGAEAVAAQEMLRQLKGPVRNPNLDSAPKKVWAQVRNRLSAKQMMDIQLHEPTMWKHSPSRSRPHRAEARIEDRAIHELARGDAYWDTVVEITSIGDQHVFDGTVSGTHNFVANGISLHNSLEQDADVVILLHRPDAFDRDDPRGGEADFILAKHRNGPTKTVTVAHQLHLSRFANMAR

[24] = target: T5, Apoptotic protease-activating factor 1 (Homo sapiens, UniProt O14727); assay type: functional
T5 sequence (O14727 whole entry): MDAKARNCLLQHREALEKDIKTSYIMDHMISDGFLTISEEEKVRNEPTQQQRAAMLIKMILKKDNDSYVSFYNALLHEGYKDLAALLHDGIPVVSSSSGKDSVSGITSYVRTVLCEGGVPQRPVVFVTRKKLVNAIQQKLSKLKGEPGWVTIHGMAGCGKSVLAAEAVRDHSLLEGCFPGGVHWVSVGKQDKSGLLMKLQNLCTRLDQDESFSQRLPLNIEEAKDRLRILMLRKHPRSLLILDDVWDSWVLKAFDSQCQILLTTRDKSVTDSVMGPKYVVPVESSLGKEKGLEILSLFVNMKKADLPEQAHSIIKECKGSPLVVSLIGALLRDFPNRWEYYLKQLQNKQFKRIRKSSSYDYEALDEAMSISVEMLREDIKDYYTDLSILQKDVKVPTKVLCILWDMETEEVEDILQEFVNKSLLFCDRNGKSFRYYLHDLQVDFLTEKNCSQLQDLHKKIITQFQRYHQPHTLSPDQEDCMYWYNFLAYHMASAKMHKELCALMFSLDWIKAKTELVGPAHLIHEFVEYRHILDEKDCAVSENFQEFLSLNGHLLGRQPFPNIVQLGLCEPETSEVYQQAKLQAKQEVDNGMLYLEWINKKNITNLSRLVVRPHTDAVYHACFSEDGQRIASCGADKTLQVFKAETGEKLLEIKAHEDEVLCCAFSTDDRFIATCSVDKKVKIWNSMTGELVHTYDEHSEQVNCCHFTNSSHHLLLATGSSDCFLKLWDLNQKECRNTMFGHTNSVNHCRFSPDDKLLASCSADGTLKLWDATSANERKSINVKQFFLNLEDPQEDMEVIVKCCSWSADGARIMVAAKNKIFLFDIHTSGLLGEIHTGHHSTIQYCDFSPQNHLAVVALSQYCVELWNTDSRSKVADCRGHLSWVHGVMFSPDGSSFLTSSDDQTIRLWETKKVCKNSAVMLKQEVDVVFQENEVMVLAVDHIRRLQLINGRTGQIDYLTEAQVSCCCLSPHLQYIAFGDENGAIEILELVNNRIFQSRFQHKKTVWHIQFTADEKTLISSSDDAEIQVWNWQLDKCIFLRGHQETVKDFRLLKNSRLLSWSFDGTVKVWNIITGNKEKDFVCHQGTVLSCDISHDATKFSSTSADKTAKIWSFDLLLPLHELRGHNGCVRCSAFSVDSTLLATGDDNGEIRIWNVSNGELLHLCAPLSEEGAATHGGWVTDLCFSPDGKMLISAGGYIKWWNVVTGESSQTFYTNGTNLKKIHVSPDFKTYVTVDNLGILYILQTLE

[25] = target: T6, Protein RecA (Mycobacterium tuberculosis, UniProt P9WHJ3); test: Fluorescence Cell-Free Homogeneous Dose Retest to Identify Inhibitors of RecA-Intein Splicing Activity. [Related pubchem assays (depositor defined):AID2097, AID2223, AID489010, AID492950]; assay type: functional
T6 sequence (P9WHJ3 whole entry): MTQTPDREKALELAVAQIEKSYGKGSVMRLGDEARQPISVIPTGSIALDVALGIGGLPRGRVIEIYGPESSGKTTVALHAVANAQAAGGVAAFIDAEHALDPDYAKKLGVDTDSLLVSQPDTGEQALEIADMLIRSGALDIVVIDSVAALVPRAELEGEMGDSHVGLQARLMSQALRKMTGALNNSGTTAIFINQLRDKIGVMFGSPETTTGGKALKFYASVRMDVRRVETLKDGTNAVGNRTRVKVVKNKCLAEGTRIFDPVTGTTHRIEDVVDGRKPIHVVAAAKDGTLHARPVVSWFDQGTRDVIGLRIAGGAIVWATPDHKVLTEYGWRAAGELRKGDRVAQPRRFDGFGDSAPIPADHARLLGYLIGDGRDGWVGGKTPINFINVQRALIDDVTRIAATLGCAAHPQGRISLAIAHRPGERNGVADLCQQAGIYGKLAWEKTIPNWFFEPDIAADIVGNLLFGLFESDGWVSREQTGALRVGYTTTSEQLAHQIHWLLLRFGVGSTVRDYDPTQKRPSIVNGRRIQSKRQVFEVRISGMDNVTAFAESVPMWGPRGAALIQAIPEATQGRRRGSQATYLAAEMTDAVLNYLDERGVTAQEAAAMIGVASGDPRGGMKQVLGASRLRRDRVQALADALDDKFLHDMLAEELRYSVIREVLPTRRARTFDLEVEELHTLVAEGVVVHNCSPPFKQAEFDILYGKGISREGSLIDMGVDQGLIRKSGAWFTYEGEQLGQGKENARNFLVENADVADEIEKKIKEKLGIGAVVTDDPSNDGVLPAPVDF

Nucleotide-binding oligomerization domain-containing protein 2, sequence (Q9HC29 whole entry, the tested form may be a part): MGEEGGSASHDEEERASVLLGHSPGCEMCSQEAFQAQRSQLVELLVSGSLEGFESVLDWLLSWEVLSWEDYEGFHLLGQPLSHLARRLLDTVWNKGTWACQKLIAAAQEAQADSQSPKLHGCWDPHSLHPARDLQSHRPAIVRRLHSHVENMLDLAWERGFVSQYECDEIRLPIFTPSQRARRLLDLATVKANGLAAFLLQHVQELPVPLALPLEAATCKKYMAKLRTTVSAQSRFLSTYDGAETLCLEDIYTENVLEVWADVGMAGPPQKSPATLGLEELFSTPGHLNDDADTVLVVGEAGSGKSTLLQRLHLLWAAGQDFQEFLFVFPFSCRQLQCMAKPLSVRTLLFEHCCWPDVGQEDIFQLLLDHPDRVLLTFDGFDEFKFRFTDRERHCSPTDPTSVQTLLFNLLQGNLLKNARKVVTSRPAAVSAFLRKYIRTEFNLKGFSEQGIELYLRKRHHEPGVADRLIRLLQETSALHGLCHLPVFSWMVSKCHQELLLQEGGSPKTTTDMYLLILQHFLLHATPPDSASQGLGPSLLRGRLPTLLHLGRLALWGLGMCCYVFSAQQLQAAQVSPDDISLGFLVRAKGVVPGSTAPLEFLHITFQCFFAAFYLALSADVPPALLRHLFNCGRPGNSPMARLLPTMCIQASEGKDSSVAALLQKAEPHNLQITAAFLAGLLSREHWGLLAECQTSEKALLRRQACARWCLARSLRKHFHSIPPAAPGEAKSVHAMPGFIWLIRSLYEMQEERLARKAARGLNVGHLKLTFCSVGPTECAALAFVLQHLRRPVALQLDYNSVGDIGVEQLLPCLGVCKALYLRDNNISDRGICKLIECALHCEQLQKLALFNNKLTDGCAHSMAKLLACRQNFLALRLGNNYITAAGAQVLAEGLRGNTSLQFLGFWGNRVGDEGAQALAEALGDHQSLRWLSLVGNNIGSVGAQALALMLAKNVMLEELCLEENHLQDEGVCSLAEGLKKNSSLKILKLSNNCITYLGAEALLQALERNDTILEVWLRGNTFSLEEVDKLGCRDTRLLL
Cytochrome P450 2D6, sequence (P10635 whole entry): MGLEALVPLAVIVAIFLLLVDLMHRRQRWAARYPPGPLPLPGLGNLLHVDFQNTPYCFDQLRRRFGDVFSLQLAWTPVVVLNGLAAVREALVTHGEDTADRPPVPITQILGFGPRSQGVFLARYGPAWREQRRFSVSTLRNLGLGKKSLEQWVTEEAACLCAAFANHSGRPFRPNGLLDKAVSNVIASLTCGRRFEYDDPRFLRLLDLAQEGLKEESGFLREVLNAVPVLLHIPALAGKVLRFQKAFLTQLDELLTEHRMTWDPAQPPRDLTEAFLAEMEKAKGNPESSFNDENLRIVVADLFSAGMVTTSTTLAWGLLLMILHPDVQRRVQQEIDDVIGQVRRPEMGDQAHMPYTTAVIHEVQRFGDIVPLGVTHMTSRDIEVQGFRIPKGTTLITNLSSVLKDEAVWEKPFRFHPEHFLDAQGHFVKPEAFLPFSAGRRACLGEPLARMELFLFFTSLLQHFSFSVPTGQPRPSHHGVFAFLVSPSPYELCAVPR
Nonstructural protein 1, sequence (Q194T2 whole entry): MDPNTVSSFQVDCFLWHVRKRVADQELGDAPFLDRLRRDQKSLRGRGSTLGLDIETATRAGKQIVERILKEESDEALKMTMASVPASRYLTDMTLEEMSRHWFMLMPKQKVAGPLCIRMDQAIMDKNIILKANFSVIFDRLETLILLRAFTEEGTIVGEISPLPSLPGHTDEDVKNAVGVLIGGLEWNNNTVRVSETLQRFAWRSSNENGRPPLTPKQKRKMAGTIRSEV
SUMO-activating enzyme, sequence (Q9UBE0 whole entry): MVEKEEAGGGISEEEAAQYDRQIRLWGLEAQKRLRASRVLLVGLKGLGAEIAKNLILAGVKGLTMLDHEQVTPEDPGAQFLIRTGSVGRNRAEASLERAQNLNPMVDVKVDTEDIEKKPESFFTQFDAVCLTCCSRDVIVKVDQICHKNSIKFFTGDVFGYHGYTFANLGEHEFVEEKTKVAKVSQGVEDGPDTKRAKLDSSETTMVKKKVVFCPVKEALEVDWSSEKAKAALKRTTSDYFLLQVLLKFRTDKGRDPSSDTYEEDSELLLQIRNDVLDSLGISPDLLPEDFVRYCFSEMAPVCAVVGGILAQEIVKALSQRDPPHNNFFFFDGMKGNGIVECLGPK
SUMO-activating enzyme, sequence (Q9UBT2 whole entry): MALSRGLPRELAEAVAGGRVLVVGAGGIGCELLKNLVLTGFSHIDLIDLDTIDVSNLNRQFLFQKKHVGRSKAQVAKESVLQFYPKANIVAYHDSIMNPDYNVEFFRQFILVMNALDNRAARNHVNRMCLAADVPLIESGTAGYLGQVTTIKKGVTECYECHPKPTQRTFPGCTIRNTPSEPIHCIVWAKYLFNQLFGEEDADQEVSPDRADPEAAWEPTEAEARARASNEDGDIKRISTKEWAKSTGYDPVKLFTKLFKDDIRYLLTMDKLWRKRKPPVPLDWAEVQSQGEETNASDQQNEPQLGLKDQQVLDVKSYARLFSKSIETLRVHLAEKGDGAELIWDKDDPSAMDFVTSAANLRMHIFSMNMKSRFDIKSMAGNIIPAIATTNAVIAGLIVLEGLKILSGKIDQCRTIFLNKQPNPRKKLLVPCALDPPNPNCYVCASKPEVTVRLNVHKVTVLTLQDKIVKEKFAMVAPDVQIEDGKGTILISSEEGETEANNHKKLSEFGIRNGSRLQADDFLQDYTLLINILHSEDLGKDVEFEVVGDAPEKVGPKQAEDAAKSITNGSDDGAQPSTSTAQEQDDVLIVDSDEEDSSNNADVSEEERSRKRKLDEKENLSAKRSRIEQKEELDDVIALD
Phosphomannomutase 2, sequence (O15305 whole entry): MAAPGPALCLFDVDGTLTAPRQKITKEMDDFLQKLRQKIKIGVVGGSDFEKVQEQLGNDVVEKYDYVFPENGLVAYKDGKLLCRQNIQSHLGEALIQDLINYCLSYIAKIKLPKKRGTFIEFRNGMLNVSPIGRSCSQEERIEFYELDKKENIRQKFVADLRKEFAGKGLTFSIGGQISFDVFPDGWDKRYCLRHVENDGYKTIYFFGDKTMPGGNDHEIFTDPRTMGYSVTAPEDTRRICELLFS
G-protein coupled receptor 55, sequence (Q9Y2T6 whole entry): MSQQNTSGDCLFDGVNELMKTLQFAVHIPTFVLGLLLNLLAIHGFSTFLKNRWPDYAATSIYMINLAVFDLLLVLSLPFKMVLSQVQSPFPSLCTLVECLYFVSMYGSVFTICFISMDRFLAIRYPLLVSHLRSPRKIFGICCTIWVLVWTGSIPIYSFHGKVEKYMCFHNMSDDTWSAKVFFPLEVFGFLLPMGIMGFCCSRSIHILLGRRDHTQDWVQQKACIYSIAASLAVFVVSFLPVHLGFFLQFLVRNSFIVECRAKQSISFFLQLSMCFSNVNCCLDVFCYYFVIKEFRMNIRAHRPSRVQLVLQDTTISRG

CCCn1c(C)cc(C(=O)COc2ccc(C)nc2[N+](=O)[O-])c1C
EC50 [1]: > 20 µM (inactive)
IC50 [2]: 3.81 µM (active)
IC50 [3]: > 20 µM (inactive)
EC50 [4]: 7.64 µM (active)
IC50 [5]: > 20 µM (inactive)
IC50 [6]: > 20 µM (inactive)
IC50 [7]: > 100 µM (active)

N#Cc1c(-c2ccccc2)cc(C2CC2)nc1N
EC50 [8]: > 59.7 µM (inactive)
EC50 [9]: > 59.7 µM (inactive)

Cc1nc(Nc2cnc(/C=C/c3cc(C(=O)Nc4cccc(C(F)(F)F)c4)ccc3C)cn2)cc(N2CCNCC2)n1
EC50 [1]: 7.82 µM (active)
EC50 [10]: 6.39 µM (active)
IC50 [2]: > 20 µM (inactive)
EC50 [11]: 11.4 µM (active)
IC50 [3]: > 20 µM (inactive)
EC50 [4]: 8.28 µM (active)
IC50 [5]: > 20 µM (inactive)
IC50 [6]: > 20 µM (inactive)
EC50 [12]: > 150 µM (not active)
IC50 [13]: > 20 µM (inactive)
AC50 [14]: 8.7 µM (active)

C#CCCCO/N=C1/[C@H]2O[C@@H]2[C@@H](O)[C@H]2[C@H]1CCn1c(=O)n(C)c(=O)n12
AC50 [15]: inconclusive

Cc1ccc(NC2Nc3cc(C)nn3S2)c(C)c1 (configuration not stated)
IC50 [16]: 11.2 µM (active)
IC50 [17]: > 50 µM (inactive)
IC50 [18]: > 100 µM (inactive)

CCc1ccc(NC(=O)CSc2nc3ccsc3c(=O)n2Cc2ccc(OC)cc2)cc1
IC50 [19]: > 32 µM (inactive)

CCOC(=O)c1c(NC(=O)/C=C/c2ccc3c(c2)OCO3)sc(C)c1C
AC50 [15]: inconclusive

O=[N+]([O-])c1cccc(/C=N/c2cccc3ccccc23)c1O
EC50 [20]: 107 µM (active)
IC50 [21]: 20.4 µM (active)
EC50 [22]: 3.78 µM (active)
AC50 [23]: 54.6 µM (active)
IC50 [24]: 56.6 µM (active)
EC50 [25]: 41.9 µM (active)
